Reference: patent US20250154169A1, “COMPOUNDS AND METHODS FOR MODULATING SPLICING” (REMIX THERAPEUTICS INC., priority 2021, published 2025)
Read-outs that look alike come from different tables or passages of the source.

Experiments:
Assay type in all cases: cell-based, human
[1] = test system: HTT mRNA; experiment: Splicing RT-qPCR assay, HTT canonical (CJ) and alternative (AJ) junction mRNA; details: Homo sapiens, A673 or K562 cells, 24 hours compound treatment; for IC50: 24 h, read-out: HTT CJ (IC50, decrease in canonical junction mRNA); for AC50: read-out: HTT AJ (AC50, increase in alternative junction mRNA)
Outline: (§1)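 A673 or K562 cells were treated 24 h at 37 °C with an 11-point 3-fold compound dilution series (top 10 uM, DMSO ≤0.25%). Lysates went to one-step RT-qPCR measuring canonical (CJ) and alternative-exon (AJ) junction transcripts, normalized to GAPDH, GUSB or PPIA.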

[2] = test system: MYB mRNA; experiment: Splicing RT-qPCR assay, MYB canonical (CJ) and alternative (AJ) junction mRNA; details: Homo sapiens; for AC50: read-out: MYB AJ (AC50, increase in alternative junction mRNA)
Outline: as §1

[3] = test system: SMN2 mRNA; experiment: Splicing RT-qPCR gene panel, SMN2 canonical junction (CJ) mRNA; details: Homo sapiens, Tables 4A/4B, read-out: SMN2 (IC50, decrease in CJ mRNA, gene panel)
Outline: (§2)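 A673 or K562 cells treated 24 h at 37° C. with an 11-point 3-fold dilution series (top 10 uM, ≤0.25% DMSO). Lysates analysed by one-step RT-qPCR for canonical exon-exon junction transcripts, normalized to GAPDH, GUSB or PPIA and DMSO control (2^(−ΔΔCt)), then converted to percentage response.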

[4] = test system: Target C mRNA; experiment: Splicing RT-qPCR gene panel, Target C canonical junction (CJ) mRNA; details: Tables 4A/4B, read-out: Target C (IC50, decrease in CJ mRNA, gene panel)
Outline: as §2

[5] = test system: HTT mRNA; experiment: Splicing RT-qPCR gene panel, HTT canonical junction (CJ) mRNA; details: Homo sapiens, Tables 4A/4B, read-out: HTT (IC50, decrease in CJ mRNA, gene panel)
Outline: as §2

[6] = 24 h, A673 or K562 cells, 24 hours compound treatment, RT-qPCR
[7] = 24 h, A673 or K562 cells, 24 hours compound treatment, RT-qPCR, read-out: MYB CJ (IC50, decrease in canonical junction mRNA)
[8] = Tables 4A/4B, canonical junction qPCR panel, read-out: MYB (IC50, decrease in CJ mRNA, gene panel)

Cc1cn2cc(NC(=O)c3ccc(N4C[C@H]5CC[C@@H](C4)N5)c4cc(C)oc34)cc(F)c2n1 [Compound 255]
IC50 [1]: 1000 to 10000 nM | AC50 [1]: 1000 to 10000 nM | AC50 [2, 6]: < 100 nM | IC50 [2, 7]: 100 to 1000 nM | IC50 [2, 8]: 100 to 1000 nM | IC50 [3]: < 100 nM | IC50 ([4]; Homo sapiens): > 10000 nM | IC50 [5]: 1000 to 10000 nM

Cc1cn2cc(NC(=O)c3ccc(C4CCN(C)CC4)c4cc(C)oc34)cc(F)c2n1 [Compound 256]
IC50 [1]: 1000 to 10000 nM | AC50 [1]: 1000 to 10000 nM | AC50 [2, 6]: 100 to 1000 nM | IC50 [2, 7]: 100 to 1000 nM | IC50 [2, 8]: 100 to 1000 nM | IC50 [3]: < 100 nM | IC50 ([4]; Homo sapiens): > 10000 nM | IC50 [5]: 1000 to 10000 nM

CCN1CCC(c2ccc(C(=O)Nc3cc(F)c4nc(C)cn4c3)c3oc(C)cc23)CC1 [Compound 257]
IC50 [1]: 1000 to 10000 nM | AC50 [1]: 1000 to 10000 nM | AC50 [2, 6]: 100 to 1000 nM | IC50 [2, 7]: 100 to 1000 nM | IC50 [2, 8]: 100 to 1000 nM | IC50 [3]: < 100 nM | IC50 ([4]; Homo sapiens): > 10000 nM | IC50 [5]: 1000 to 10000 nM

Cc1cn2cc(NC(=O)c3ccc(N4CCC(N(C)C)C4)c4cn(C)nc34)cc(F)c2n1 (stereo not shown) [Compound 258]
IC50 [1]: 1000 to 10000 nM | AC50 [1]: 100 to 1000 nM | AC50 [2, 6]: < 100 nM | IC50 [2, 7]: < 100 nM | IC50 [2, 8]: < 100 nM | IC50 [3]: < 100 nM | IC50 ([4]; Homo sapiens): 1000 to 10000 nM | IC50 [5]: 1000 to 10000 nM

Cc1cn2cc(NC(=O)c3ccc(N4CCC(NC(C)(C)C)CC4)c4cn(C)nc34)cc(F)c2n1 [Compound 259]
IC50 [1]: 1000 to 10000 nM | AC50 [1]: 1000 to 10000 nM | AC50 [2, 6]: 1000 to 10000 nM | IC50 [2, 7]: 100 to 1000 nM | IC50 [2, 8]: 100 to 1000 nM | IC50 [3]: < 100 nM | IC50 ([4]; Homo sapiens): 1000 to 10000 nM | IC50 [5]: 1000 to 10000 nM

Cc1cn2cc(NC(=O)c3ccc(N4C[C@H]5CC[C@@H](C4)N5)c4cn(C)nc34)cc(F)c2n1 [Compound 260]
IC50 [1]: 100 to 1000 nM | AC50 [1]: 100 to 1000 nM | AC50 [2, 6]: < 100 nM | IC50 [2, 7]: < 100 nM | IC50 [2, 8]: < 100 nM | IC50 [3]: 1000 to 10000 nM | IC50 ([4]; Homo sapiens): 1000 to 10000 nM | IC50 [5]: 100 to 1000 nM

Cc1cc2c(N3CCNCC3)ccc(C(=O)Nc3ccc4cn(C)nc4c3)c2o1 [Compound 261]
IC50 [1]: > 10000 nM | AC50 [1]: > 10000 nM | AC50 [2, 6]: > 10000 nM | IC50 [2, 7]: > 10000 nM | IC50 [2, 8]: > 10000 nM | IC50 [3]: 1000 to 10000 nM | IC50 ([4]; Homo sapiens): > 10000 nM | IC50 [5]: > 10000 nM

Cc1cn2cc(NC(=O)c3ccc(N4CCNCC4)c4cc(C)oc34)c(C)cc2n1 [Compound 262]
IC50 [1]: 1000 to 10000 nM | AC50 [1]: 1000 to 10000 nM | AC50 [2, 6]: 100 to 1000 nM | IC50 [2, 7]: 100 to 1000 nM | IC50 [2, 8]: 100 to 1000 nM | IC50 [3]: < 100 nM | IC50 ([4]; Homo sapiens): > 10000 nM | IC50 [5]: 1000 to 10000 nM

Cc1cn2cc(NC(=O)c3ccc(N4CCNCC4)c4cc(C)oc34)ncc2n1 [Compound 263]
IC50 [1]: 1000 to 10000 nM | AC50 [1]: 1000 to 10000 nM | AC50 [2, 6]: 100 to 1000 nM | IC50 [2, 7]: 100 to 1000 nM | IC50 [2, 8]: 100 to 1000 nM | IC50 [3]: < 100 nM | IC50 ([4]; Homo sapiens): 1000 to 10000 nM | IC50 [5]: 1000 to 10000 nM

Cc1cn2nc(NC(=O)c3ccc(N4CCNCC4)c4cc(C)oc34)nc2c(C)n1 [Compound 264]
IC50 [1]: > 10000 nM | AC50 [1]: > 10000 nM | AC50 [2, 6]: > 10000 nM | IC50 [2, 7]: > 10000 nM | IC50 [2, 8]: > 10000 nM | IC50 [3]: > 10000 nM | IC50 ([4]; Homo sapiens): > 10000 nM | IC50 [5]: > 10000 nM

Cc1cn2nc(NC(=O)c3ccc(N4CCNCC4)c4cc(C)oc34)cc2c(C)n1 [Compound 265]
IC50 [1]: > 10000 nM | AC50 [1]: > 10000 nM | AC50 [2, 6]: > 10000 nM | IC50 [2, 7]: > 10000 nM | IC50 [2, 8]: > 10000 nM | IC50 [3]: 1000 to 10000 nM | IC50 ([4]; Homo sapiens): > 10000 nM | IC50 [5]: > 10000 nM

Cc1cn2cc(NC(=O)c3ccc(N4CCNCC4)c4cc(C)oc34)cc(Cl)c2n1 [Compound 266]
IC50 [1]: 1000 to 10000 nM | AC50 [1]: 1000 to 10000 nM | AC50 [2, 6]: < 100 nM | IC50 [2, 7]: 100 to 1000 nM | IC50 [2, 8]: 100 to 1000 nM | IC50 [3]: < 100 nM | IC50 ([4]; Homo sapiens): > 10000 nM | IC50 [5]: 1000 to 10000 nM

Cc1cn2cc(NC(=O)c3ccc(N4CCNCC4)c4cc(C)oc34)cc(C)c2n1 [Compound 267]
IC50 [1]: > 10000 nM | AC50 [1]: 1000 to 10000 nM | AC50 [2, 6]: 100 to 1000 nM | IC50 [2, 7]: 1000 to 10000 nM | IC50 [2, 8]: 1000 to 10000 nM | IC50 [3]: < 100 nM | IC50 ([4]; Homo sapiens): > 10000 nM | IC50 [5]: > 10000 nM

Cc1cc2c(N3CCNCC3)ccc(C(=O)Nc3cn[nH]c3)c2o1 [Compound 268]
IC50 [1]: > 10000 nM | AC50 [1]: > 10000 nM | AC50 [2, 6]: > 10000 nM | IC50 [2, 7]: > 10000 nM | IC50 [2, 8]: > 10000 nM | IC50 [3]: > 10000 nM | IC50 ([4]; Homo sapiens): > 10000 nM | IC50 [5]: > 10000 nM

Cc1cn2cc(NC(=O)c3ccc(N4CCNCC4)c4cn(C)nc34)cc(Cl)c2n1 [Compound 269]
IC50 [1]: 100 to 1000 nM | AC50 [1]: 100 to 1000 nM | AC50 [2, 6]: < 100 nM | IC50 [2, 7]: < 100 nM | IC50 [2, 8]: < 100 nM | IC50 [3]: < 100 nM | IC50 [4]: 1000 to 10000 nM | IC50 [5]: 100 to 1000 nM

Cn1cc2c(N3CCNCC3)ccc(C(=O)Nc3cn[nH]c3)c2n1 [Compound 270]
IC50 [1]: > 10000 nM | AC50 [1]: > 10000 nM | AC50 [2, 6]: > 10000 nM | IC50 [2, 7]: > 10000 nM | IC50 [2, 8]: > 10000 nM | IC50 [3]: > 10000 nM | IC50 ([4]; Homo sapiens): > 10000 nM | IC50 [5]: > 10000 nM

Cc1cn2cc(NC(=O)c3ccc(C4CC(C)(C)NC(C)(C)C4)c4cc(C)oc34)cc(F)c2n1 [Compound 271]
IC50 [1]: > 10000 nM | AC50 [1]: > 10000 nM | AC50 [2, 6]: 1000 to 10000 nM | IC50 [2, 7]: 1000 to 10000 nM | IC50 [2, 8]: 1000 to 10000 nM | IC50 [3]: 100 to 1000 nM | IC50 ([4]; Homo sapiens): > 10000 nM | IC50 [5]: > 10000 nM

Cc1cn2cc(NC(=O)c3ccc(N4CCC(N5CCCC5)C4)c4cn(C)nc34)cc(F)c2n1 (stereo not shown) [Compound 272]
IC50 [1]: 100 to 1000 nM | AC50 [1]: 100 to 1000 nM | AC50 [2, 6]: < 100 nM | IC50 [2, 7]: 100 to 1000 nM | IC50 [2, 8]: 100 to 1000 nM | IC50 [3]: < 100 nM | IC50 ([4]; Homo sapiens): 100 to 1000 nM | IC50 [5]: 100 to 1000 nM

Cc1cn2cc(NC(=O)c3ccc(N4CCNCC4)c4cn(C)nc34)nc2c(C)n1 [Compound 273]
IC50 [1]: > 10000 nM | AC50 [1]: > 10000 nM | AC50 [2, 6]: 100 to 1000 nM | IC50 [2, 7]: 100 to 1000 nM | IC50 [2, 8]: 100 to 1000 nM | IC50 [3]: < 100 nM | IC50 ([4]; Homo sapiens): > 10000 nM | IC50 [5]: > 10000 nM

Cc1cn2cc(NC(=O)c3ccc(N4CC(C)(C)NC(C)(C)C4)c4cn(C)nc34)cc(F)c2n1 [Compound 274]
IC50 [1]: 1000 to 10000 nM | AC50 [1]: > 10000 nM | AC50 [2, 6]: 100 to 1000 nM | IC50 [2, 7]: 100 to 1000 nM | IC50 [2, 8]: 100 to 1000 nM | IC50 [3]: < 100 nM | IC50 ([4]; Homo sapiens): > 10000 nM | IC50 [5]: 1000 to 10000 nM
